Experiments:
Experiment in all cases: Test F preemergence test
Surinam grass = type: in vivo, Brachiaria decumbens; conditions: scale 0 to 100; for Plant response rating, Surinam Grass: 31 g ai/ha
Method in brief: (§1)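 Compound in a non-phytotoxic solvent blend with surfactant is applied preemergence to planted seeds or postemergence to sugarcane plants. Plants and controls stay in the greenhouse 14 to 21 days before visual comparison.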

large crabgrass = type: in vivo, Digitaria sanguinalis; conditions: scale 0 to 100
Method in brief: as §1

kochia = type: in vivo, Kochia scoparia; conditions: scale 0 to 100
Method in brief: as §1

mustard = type: in vivo, Brassica nigra; conditions: scale 0 to 100
Method in brief: as §1

guineagrass = type: in vivo, Panicum maximum; conditions: scale 0 to 100
Method in brief: as §1

dallisgrass = type: in vivo, Paspalum dilatatum; conditions: scale 0 to 100
Method in brief: as §1

barnyardgrass = type: in vivo, Echinochloa crus-galli; conditions: scale 0 to 100
Method in brief: as §1

southern sandbur = type: in vivo, Cenchrus echinatus; conditions: scale 0 to 100; for Plant response rating, Sandbur: 31 g ai/ha
Method in brief: as §1

Italian ryegrass = type: in vivo, Lolium multiflorum; conditions: scale 0 to 100
Method in brief: as §1

common purslane = type: in vivo, Portulaca oleracea; conditions: scale 0 to 100
Method in brief: as §1

common groundsel = type: in vivo, Senecio vulgaris; conditions: scale 0 to 100
Method in brief: as §1

Virginia dayflower = type: in vivo, Commelina virginica; conditions: scale 0 to 100
Method in brief: as §1

annual bluegrass = type: in vivo, Poa annua; conditions: scale 0 to 100
Method in brief: as §1

quackgrass = type: in vivo, Elytrigia repens; conditions: scale 0 to 100
Method in brief: as §1

field bindweed = type: in vivo, Convolvulus arvensis; conditions: scale 0 to 100
Method in brief: as §1

common mallow = type: in vivo, Malva sylvestris; conditions: scale 0 to 100
Method in brief: as §1

SMILES: Cc1cc[n+]([O-])c([S+]([O-])Cc2c(C(F)(F)F)nn(C)c2OCC(F)(F)F)c1 (racemic) [Compound 30]
- Surinam Grass plant response rating (Surinam grass; 62 g ai/ha, Preemergence): 80
- Surinam Grass plant response rating (Surinam grass; 125 g ai/ha, preemergence): 100
- Plant response rating, Surinam Grass (Surinam grass; Preemergence): 75
- Crabgrass, Large plant response rating (large crabgrass; 62 g ai/ha, Preemergence): 100
- Crabgrass, Large plant response rating (large crabgrass; 125 g ai/ha, preemergence): 100
- Plant response rating, Crabgrass, Large (large crabgrass; Preemergence, 16 g ai/ha): 40
- Plant response rating, Crabgrass, Large (large crabgrass; Preemergence, 31 g ai/ha): 50
- Kochia plant response rating (kochia; 62 g ai/ha, Preemergence): 95
- Kochia plant response rating (kochia; 125 g ai/ha, preemergence): 95
- Plant response rating, Kochia (kochia; Preemergence, 16 g ai/ha): 90
- Plant response rating, Kochia (kochia; Preemergence, 31 g ai/ha): 90
- Black Mustard plant response rating (mustard; 62 g ai/ha, Preemergence): 100
- Black Mustard plant response rating (mustard; 125 g ai/ha, preemergence): 100
- Plant response rating, Black Mustard (mustard; Preemergence, 16 g ai/ha): 70
- Plant response rating, Black Mustard (mustard; Preemergence, 31 g ai/ha): 90
- Guineagrass plant response rating (guineagrass; 62 g ai/ha, Preemergence): 100
- Guineagrass plant response rating (guineagrass; 125 g ai/ha, preemergence): 100
- Plant response rating, Guineagrass (guineagrass; Preemergence, 16 g ai/ha): 35
- Plant response rating, Guineagrass (guineagrass; Preemergence, 31 g ai/ha): 100
- Dallisgrass plant response rating (dallisgrass; 62 g ai/ha, Preemergence): 85
- Dallisgrass plant response rating (dallisgrass; 125 g ai/ha, preemergence): 98
- Plant response rating, Dallisgrass (dallisgrass; Preemergence, 16 g ai/ha): 50
- Plant response rating, Dallisgrass (dallisgrass; Preemergence, 31 g ai/ha): 50
- Barnyardgrass plant response rating (barnyardgrass; 62 g ai/ha, Preemergence): 95
- Barnyardgrass plant response rating (barnyardgrass; 125 g ai/ha, preemergence): 100
- Plant response rating, Barnyardgrass (barnyardgrass; Preemergence, 16 g ai/ha): 20
- Plant response rating, Barnyardgrass (barnyardgrass; Preemergence, 31 g ai/ha): 75
- Sandbur plant response rating (southern sandbur; 62 g ai/ha, Preemergence): 100
- Sandbur plant response rating (southern sandbur; 125 g ai/ha, preemergence): 100
- Plant response rating, Sandbur (southern sandbur; Preemergence): 50
- Ryegrass, Italian plant response rating (Italian ryegrass; 62 g ai/ha, Preemergence): 80
- Ryegrass, Italian plant response rating (Italian ryegrass; 125 g ai/ha, preemergence): 95
- Plant response rating, Ryegrass, Italian (Italian ryegrass; Preemergence, 16 g ai/ha): 60
- Plant response rating, Ryegrass, Italian (Italian ryegrass; Preemergence, 31 g ai/ha): 70
- Purslane plant response rating (common purslane; 62 g ai/ha, Preemergence): 75
- Purslane plant response rating (common purslane; 125 g ai/ha, preemergence): 100
- Plant response rating, Purslane (common purslane; Preemergence, 16 g ai/ha): 35
- Plant response rating, Purslane (common purslane; Preemergence, 31 g ai/ha): 50
- Groundsel plant response rating (common groundsel; 62 g ai/ha, Preemergence): 90
- Groundsel plant response rating (common groundsel; 125 g ai/ha, preemergence): 100
- Plant response rating, Groundsel (common groundsel; Preemergence, 16 g ai/ha): 50
- Plant response rating, Groundsel (common groundsel; Preemergence, 31 g ai/ha): 90
- Dayflower plant response rating (Virginia dayflower; 62 g ai/ha, Preemergence): 90
- Dayflower plant response rating (Virginia dayflower; 125 g ai/ha, preemergence): 100
- Plant response rating, Dayflower (Virginia dayflower; Preemergence, 16 g ai/ha): 50
- Plant response rating, Dayflower (Virginia dayflower; Preemergence, 31 g ai/ha): 70
- Bluegrass plant response rating (annual bluegrass; 62 g ai/ha, Preemergence): 65
- Bluegrass plant response rating (annual bluegrass; 125 g ai/ha, preemergence): 80
- Plant response rating, Bluegrass (annual bluegrass; Preemergence, 16 g ai/ha): 35
- Plant response rating, Bluegrass (annual bluegrass; Preemergence, 31 g ai/ha): 50
- Quackgrass plant response rating (quackgrass; 62 g ai/ha, Preemergence): 70
- Quackgrass plant response rating (quackgrass; 125 g ai/ha, preemergence): 75
- Plant response rating, Quackgrass (quackgrass; Preemergence, 16 g ai/ha): 15
- Plant response rating, Quackgrass (quackgrass; Preemergence, 31 g ai/ha): 40
- Field Bindweed plant response rating (field bindweed; 62 g ai/ha, Preemergence): 75
- Field Bindweed plant response rating (field bindweed; 125 g ai/ha, preemergence): 75
- Plant response rating, Field Bindweed (field bindweed; Preemergence, 16 g ai/ha): 50
- Plant response rating, Field Bindweed (field bindweed; Preemergence, 31 g ai/ha): 50
- Mallow plant response rating (common mallow; 62 g ai/ha, Preemergence): 100
- Mallow plant response rating (common mallow; 125 g ai/ha, preemergence): 100
- Plant response rating, Mallow (common mallow; Preemergence, 16 g ai/ha): 90
- Plant response rating, Mallow (common mallow; Preemergence, 31 g ai/ha): 95

SMILES: Cn1nc(C(F)(F)F)c(C[S+]([O-])c2cccc[n+]2[O-])c1Cl (stereo not shown) [Compound 8]
- Surinam Grass plant response rating (Surinam grass; 62 g ai/ha, Preemergence): 90
- Surinam Grass plant response rating (Surinam grass; 125 g ai/ha, preemergence): 100
- Plant response rating, Surinam Grass (Surinam grass; Preemergence): 70
- Crabgrass, Large plant response rating (large crabgrass; 62 g ai/ha, Preemergence): 90
- Crabgrass, Large plant response rating (large crabgrass; 125 g ai/ha, preemergence): 98
- Plant response rating, Crabgrass, Large (large crabgrass; Preemergence, 16 g ai/ha): 0
- Plant response rating, Crabgrass, Large (large crabgrass; Preemergence, 31 g ai/ha): 65
- Kochia plant response rating (kochia; 62 g ai/ha, Preemergence): 0
- Kochia plant response rating (kochia; 125 g ai/ha, preemergence): 100
- Plant response rating, Kochia (kochia; Preemergence, 16 g ai/ha): 0
- Plant response rating, Kochia (kochia; Preemergence, 31 g ai/ha): 0
- Black Mustard plant response rating (mustard; 62 g ai/ha, Preemergence): 80
- Black Mustard plant response rating (mustard; 125 g ai/ha, preemergence): 95
- Plant response rating, Black Mustard (mustard; Preemergence, 16 g ai/ha): 0
- Plant response rating, Black Mustard (mustard; Preemergence, 31 g ai/ha): 70
- Guineagrass plant response rating (guineagrass; 62 g ai/ha, Preemergence): 98
- Guineagrass plant response rating (guineagrass; 125 g ai/ha, preemergence): 100
- Plant response rating, Guineagrass (guineagrass; Preemergence, 16 g ai/ha): 35
- Plant response rating, Guineagrass (guineagrass; Preemergence, 31 g ai/ha): 60
- Dallisgrass plant response rating (dallisgrass; 62 g ai/ha, Preemergence): 80
- Dallisgrass plant response rating (dallisgrass; 125 g ai/ha, preemergence): 98
- Plant response rating, Dallisgrass (dallisgrass; Preemergence, 16 g ai/ha): 0
- Plant response rating, Dallisgrass (dallisgrass; Preemergence, 31 g ai/ha): 20
- Barnyardgrass plant response rating (barnyardgrass; 62 g ai/ha, Preemergence): 95
- Barnyardgrass plant response rating (barnyardgrass; 125 g ai/ha, preemergence): 100
- Plant response rating, Barnyardgrass (barnyardgrass; Preemergence, 16 g ai/ha): 70
- Plant response rating, Barnyardgrass (barnyardgrass; Preemergence, 31 g ai/ha): 80
- Sandbur plant response rating (southern sandbur; 62 g ai/ha, Preemergence): 80
- Sandbur plant response rating (southern sandbur; 125 g ai/ha, preemergence): 100
- Plant response rating, Sandbur (southern sandbur; Preemergence): 10
- Ryegrass, Italian plant response rating (Italian ryegrass; 62 g ai/ha, Preemergence): 75
- Ryegrass, Italian plant response rating (Italian ryegrass; 125 g ai/ha, preemergence): 100
- Plant response rating, Ryegrass, Italian (Italian ryegrass; Preemergence, 16 g ai/ha): 0
- Plant response rating, Ryegrass, Italian (Italian ryegrass; Preemergence, 31 g ai/ha): 40
- Purslane plant response rating (common purslane; 62 g ai/ha, Preemergence): 15
- Purslane plant response rating (common purslane; 125 g ai/ha, preemergence): 20
- Plant response rating, Purslane (common purslane; Preemergence, 16 g ai/ha): 0
- Plant response rating, Purslane (common purslane; Preemergence, 31 g ai/ha): 0
- Groundsel plant response rating (common groundsel; 62 g ai/ha, Preemergence): 65
- Groundsel plant response rating (common groundsel; 125 g ai/ha, preemergence): 80
- Plant response rating, Groundsel (common groundsel; Preemergence, 16 g ai/ha): 0
- Plant response rating, Groundsel (common groundsel; Preemergence, 31 g ai/ha): 0
- Dayflower plant response rating (Virginia dayflower; 62 g ai/ha, Preemergence): 0
- Dayflower plant response rating (Virginia dayflower; 125 g ai/ha, preemergence): 75
- Plant response rating, Dayflower (Virginia dayflower; Preemergence, 16 g ai/ha): 0
- Plant response rating, Dayflower (Virginia dayflower; Preemergence, 31 g ai/ha): 0
- Bluegrass plant response rating (annual bluegrass; 62 g ai/ha, Preemergence): 0
- Bluegrass plant response rating (annual bluegrass; 125 g ai/ha, preemergence): 70
- Plant response rating, Bluegrass (annual bluegrass; Preemergence, 16 g ai/ha): 0
- Plant response rating, Bluegrass (annual bluegrass; Preemergence, 31 g ai/ha): 0
- Quackgrass plant response rating (quackgrass; 62 g ai/ha, Preemergence): 40
- Quackgrass plant response rating (quackgrass; 125 g ai/ha, preemergence): 70
- Plant response rating, Quackgrass (quackgrass; Preemergence, 16 g ai/ha): 0
- Plant response rating, Quackgrass (quackgrass; Preemergence, 31 g ai/ha): 0
- Field Bindweed plant response rating (field bindweed; 62 g ai/ha, Preemergence): 15
- Field Bindweed plant response rating (field bindweed; 125 g ai/ha, preemergence): 70
- Plant response rating, Field Bindweed (field bindweed; Preemergence, 16 g ai/ha): 0
- Plant response rating, Field Bindweed (field bindweed; Preemergence, 31 g ai/ha): 0
- Mallow plant response rating (common mallow; 62 g ai/ha, Preemergence): 60
- Mallow plant response rating (common mallow; 125 g ai/ha, preemergence): 80
- Plant response rating, Mallow (common mallow; Preemergence, 16 g ai/ha): 30
- Plant response rating, Mallow (common mallow; Preemergence, 31 g ai/ha): 30
